“Also recorded” adds a separate entry of the source.
Tests used:
heme regulated kinase = system: heme regulated kinase; design: method as in PMID 21765405; conditions: cited from earlier work
T. cruzi epimastigotes [1] = assay: Alamar Blue viability assay of T. cruzi epimastigotes; assay type: cell-based, Trypanosoma cruzi (Y strain); conditions: Trypanosoma cruzi, 72 h, epimastigotes incubated 3 days with compound; for EC50: concentration inhibiting 50% of multiplication; for EC90: concentration inhibiting 90% of multiplication
Description: T. cruzi epimastigotes were incubated in culture medium for three days with 25 different compounds at 10 µM.
T. cruzi epimastigotes at 1 × 10^7/mL in 50 µL were incubated in 96-wells plates with the same volume of compounds pre-diluted in 50 µL of LIT medium for 48 hours at 28 °C. LLC-MK2 cells (3 × 10^3) in 100 µL of medium were added to 96 well plates. After 5 hours, the medium was replaced by fresh medium containing serial dilutions of test compounds and incubations proceeded for 72 hours at 37 °C. In both cases, 10 µL of AlamarBlue (Thermo Fisher Scientific) was added and the plates were further incubated for 18 hours at 28 °C for epimastigotes and 4 hours at 37 °C for mammalian cells. Absorbance at 570 nm and 600 nm were measured by using a SpectraMax M3 (Molecular Devices). The differences between absorbance at 570 nm and 600 nm for each well was normalized against a blank value for medium without parasites and lysed cells. Alternatively, L6 rat myoblast cell death and lysis were determined using the cytotoxicity Detection Kit Plus LDH Version 6 (Roche) after 72 hours incubation with the indicated compounds using the manufacturer protocol. […] Each compound was tested in triplicates in at least two independent experiments, with exceptions appointed on Table 1. Selective index was estimated by the ratio between LLC-MK2 EC50 and epimastigotes EC50 on Table 1.

mammalian eIF2α kinases = system: mammalian eIF2α kinases; design: method as in PMID 21765405, PMID 28590739; conditions: cited from earlier work
[2] = system: T. brucei procyclic form (PCF); assay: T. brucei procyclic form multiplication (parasite counting); assay type: cell-based, Trypanosoma brucei; conditions: 48 hours at 28 °C, Fig. 1B
T. cruzi epimastigotes [3] = assay: T. cruzi epimastigote multiplication in culture (parasite counting); assay type: cell-based, Trypanosoma cruzi (Y strain)

Structure (SMILES)	activity on heme regulated kinase leading to eIF2α phosphorylation (heme regulated kinase)	EC50 (T. cruzi epimastigotes [1])	EC90 (T. cruzi epimastigotes [1])	activation of mammalian eIF2α kinases (mammalian eIF2α kinases)	multiplication of T. brucei PCF [2]	effect on T. cruzi epimastigote multiplication at 10 µM (T. cruzi epimastigotes [3]; 10 µM, three days in culture medium)	inhibition of epimastigote multiplication (counting) (T. cruzi epimastigotes [3]; all tested concentrations, 48 hours, Fig. 1A)
O=C(Nc1ccc(Cl)c(Cl)c1)Nc1ccc2nnsc2c1 [BTdCPU, 1-(benzo [d][1,2,3]thiadiazol-6-yl)-3-(3,4-dichlorophenyl) urea]	activator						
O=C(Cn1ccnc1[N+](=O)[O-])NCc1ccccc1 [BZN, Benznidazole]		211 ± 3 µM	960 ± 25 µM				
O=C(Nc1ccc(Cl)c(Cl)c1)Nc1cc([N+](=O)[O-])ccc1Cl [NCPdCPU, 1-(2-chloro-5-nitrophenyl)-3-(3,4-dichlorophenyl) urea]	inactive	> 10 µM	> 10 µM	failed to activate	not	unable to produce any visible effect; also recorded: no activity	minimal inhibition

Source: PMC5861040, “Identification of di-substituted ureas that prevent growth of trypanosomes through inhibition of translation initiation” (Scientific Reports, 2018)
